Experimental data from patent publication US20130217892A1, “Use Of N-Substituted 2-Pyrrolidone-4-Carboxylic Acid Esters And Solvents” (CLARIANT FINANCE (BVI) LIMITED, priority 2010, published 2013).

Assay: Solubilities of pesticides in compounds of the formula (1)
Type: physicochemical
Experimental: The solubilities of various pesticides were determined in various compounds of the formula (1) at 25° C. All data are in % by weight (Table 1).

In the case of `CCCCOC(=O)C1CC(=O)N(C)C1` (centres unmarked) [example 3, N-Butyl N-Methyl-2-Pyrrolidone-4-Carboxylate], the “Solubility of Pendimethalin in the compound of the formula (1)” value is reported as 38.9 % by weight, the “Solubility of Tebuconazole in the compound of the formula (1)” value is reported as 37.0 % by weight and the “Solubility of Triadimefon in the compound of the formula (1)” value is reported as 43.0 % by weight. For the same compound, the “Solubility of Trifloxystrobin in the compound of the formula (1)” value was 30.1 % by weight and the “Solubility of Trifluralin in the compound of the formula (1)” value was 57.4 % by weight.
